# Data published in ChEMBL document CHEMBL4311969, “Polygala tenuifolia-Acori tatarinowii herbal pair as an inspiration for substituted cinnamic α-asaronol esters: Design, synthesis, anticonvulsant activity, and inhibition of lactate dehydrogenase study” (Eur J Med Chem, 2019).
# Activity calls are given as the source filed them. No cut-off for these calls is given here.
# Key:
# Mus musculus [1] = assay: Potency index, ratio of ED50 of valproic acid to ED50 of compound anticonvulsant activity in ip dosed Kunming mouse assessed as MES-induced hind limb extension administered 0.5 hrs before MES stimulation; assay type: functional
# Mus musculus [2] = assay: Anticonvulsant activity in Kunming mouse assessed as MES-induced hind limb extension at 100 mg/kg, ip administered 3 hrs before MES stimulation; assay type: functional, organism-based
# [3] = Noncompetitive inhibition of human LDH1 at 0.5 mM using sodium pyruvate as substrate by UV-VIS spectrophotometry method based Lineweaver-Burk plot analysis
# Mus musculus [4] = assay: Anticonvulsant activity in Kunming mouse assessed as MES-induced hind limb extension at 100 mg/kg, ip administered 0. 5 hrs before MES stimulation relative to control; assay type: functional
# Mus musculus [5] = assay: Potency index, ratio of ED50 of carbamazepine to ED50 of compound anticonvulsant activity in ip dosed Kunming mouse assessed as MES-induced hind limb extension administered 0.5 hrs before MES stimulation; assay type: functional
# [6] = Drug uptake in Sprague-Dawley rat brain at 50 mg/kg, po; assay type: ADME, organism-based; conditions: in vivo
# [7] = Drug uptake in Sprague-Dawley rat kidney at 50 mg/kg, po; assay type: ADME, organism-based; conditions: in vivo
# [8] = Drug uptake in Sprague-Dawley rat lungs at 50 mg/kg, po; assay type: ADME, organism-based, Lung; conditions: in vivo
# [9] = Drug uptake in Sprague-Dawley rat spleen at 50 mg/kg, po; assay type: ADME, organism-based; conditions: in vivo
# [10] = Tmax in Sprague-Dawley rat brain at 50 mg/kg, po; assay type: ADME, organism-based
compound,measurement,setting,value
COc1cc(OC)c(OC)cc1/C=C/COC(=O)/C=C/c1cc(OC)c(OC)c(OC)c1OC,Ratio ED50,Mus musculus [1],23.1
same,Activity,Mus musculus [2],Active
same,Ki,[3],1770 nM
same,Activity,Mus musculus [4],100%
same,Ratio ED50,Mus musculus [5],1.17
COc1cc(OC)c(OC)cc1/C=C/COC(=O)/C=C/c1c(OC)cc(OC)c(OC)c1OC,Drug uptake,[6],Active
same,Drug uptake,[7],Active
same,Drug uptake,[8],Active
same,Drug uptake,[9],Active
same,Tmax,[10],1 h
